Reference: patent publication US4331661A, “Bombesin analogs” (The Salk Institute for Biological Studies, priority 1980, dated 1982)
Non-standard residues stand in square brackets, D forms with d. Residues, ends and D or L forms follow the SMILES beside them. d(pGlu) = O=C1CC[C@H](C(=O)O)N1

Assays:
[1] = test system: Male Sprague-Dawley-CD rats; assay: Rise in plasma glucose after the 60 minute core temperature measurement; type: in vivo, rat; set-up: concentration or dose not given beside the values; details: rise in plasma glucose relative to Bombesin (= 100), after intracisternal injection
Description: Male Sprague-Dawley-CD rats weighing 180-200 grams each were housed in temperature and humidity controlled quarters. The rats were fed a standard rat food ration and tap water ad libitum. After being anesthetized with ether, peptides were injected into the cisterna magna of the brain of each rat. The peptides were dissolved in artificial CSF or distilled water. Ten microliters of a peptide solution containing the specified amounts of the peptide were injected. Immediately following the injection, the animals were transferred to a cold room maintained at 4° C. Rectal temperatures were recorded with a thermo-probe at 60 minutes following injection. All experiments were carried out in a randomized block design. Following analyses of variance, differences between groups were determined by the multiple range test of Dunnet and Duncan using the computer program Exbiol.
Following the 60 minute measurement of core temperature, the rats were rapidly decapitated, blood was collected and plasma levels of glucose were determined using a Beckman glucose analyzer. The results in causing a rise in plasma glucose relative to Bombesin are set forth hereinafter in Table III.

[2] = test system: Male Sprague-Dawley-CD rats; assay: Thermoregulative properties: core (rectal) temperature of rats at 4° C. after intracisternal injection; type: in vivo, rat; details: 60 minutes following injection, control 36.5°
Description: The thermoregulative properties of the peptides were determined as follows:

mammals = details: compared with neurotensin and bombesin; cited from earlier work

Molecule	POTENCY (Plasma Glucose) [1]	CORE TEMPERATURE ([2]; dosage 10 picomoles)	CORE TEMPERATURE ([2]; dosage 100 picomoles)	potency (analgesic and thermoregulative effects) (mammals)	CORE TEMPERATURE ([2]; dosage 1 nanomole)	CORE TEMPERATURE ([2]; dosage 7 nanomoles)	CORE TEMPERATURE ([2]; dosage 7 picomoles)	CORE TEMPERATURE ([2]; dosage 20 picomoles)	CORE TEMPERATURE ([2]; dosage 70 picomoles)
CSCC[C@H](NC(=O)[C@H](CC(C)C)NC(=O)[C@H](Cc1c[nH]cn1)NC(=O)[C@@H](C)NC(=O)[C@@H](NC(=O)[C@H](C)NC(=O)[C@H](Cc1c[nH]c2ccccc12)NC(=O)[C@@H](CCC(N)=O)NC(C)=O)C(C)C)C(N)=O [Peptide No. 3]	150	32.3 °C	31.9 °C						
[d(pGlu)]WAV[dA]HLM-NH2				more potent than neurotensin, it is less potent than bombesin					
CSCC[C@H](NC(=O)[C@H](CC(C)C)NC(=O)[C@H](Cc1c[nH]cn1)NC(=O)CNC(=O)[C@@H](NC(=O)[C@H](C)NC(=O)[C@H](Cc1c[nH]c2ccccc12)NC(=O)[C@H](C)NC(C)=O)C(C)C)C(N)=O [Peptide No. 4]	40	35.1 °C	33.2 °C						
CSCC[C@H](NC(=O)[C@H](CC(C)C)NC(=O)[C@H](Cc1c[nH]cn1)NC(=O)[C@@H](C)NC(=O)[C@@H](NC(=O)[C@H](C)NC(=O)[C@H](Cc1c[nH]c2ccccc12)NC(=O)[C@H](C)NC(C)=O)C(C)C)C(N)=O [Peptide No. 2] (Ac-AWAV[dA]HLM-NH2)	150	34.3 °C	31.9 °C		30.4 °C				
CSCC[C@H](NC(=O)[C@H](CC(C)C)NC(=O)[C@H](Cc1c[nH]cn1)NC(=O)CNC(=O)[C@@H](NC(=O)[C@H](C)NC(=O)[C@H](Cc1c[nH]c2ccccc12)NC(=O)[C@H](Cc1c[nH]cn1)NC(C)=O)C(C)C)C(N)=O [Peptide No. 1]	100	34.3 °C	33.2 °C		32.6 °C				
CSCC[C@H](NC(=O)[C@H](CC(C)C)NC(=O)[C@H](Cc1cnc[nH]1)NC(=O)CNC(=O)[C@@H](NC(=O)[C@H](C)NC(=O)[C@H](Cc1c[nH]c2ccccc12)NC(=O)[C@H](CCC(N)=O)NC(=O)[C@H](CC(N)=O)NC(=O)CNC(=O)[C@H](CC(C)C)NC(=O)[C@H](CCCN=C(N)N)NC(=O)[C@H](CCC(N)=O)NC(=O)[C@@H]1CCC(=O)N1)C(C)C)C(N)=O [Bombesin]	100					32.1 °C	34.7 °C	33.8 °C	33 °C
